Data reported in PubChem BioAssay AID1208 (EPA DSSTox, 2008).
Calls of active or inactive are those of the source.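 How the source made its calls: active means at least one rat sex group has a carcinogenic potency value and tumor site recorded; inconclusive means only rat studies were judged inadequate by the national testing program; inactive means no potency or tumor site, with negative rat experiments.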

Test system: rat chronic carcinogenicity bioassay, TD50
Experiment: DSSTox (CPDBAS) Carcinogenic Potency Database Summary Rat Bioassay Results
Conditions: for Potency: stronger effect = lower value
How it was run: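 Chronic long-term rat cancer bioassays from literature and NCI/NTP, taking the most positive result per sex. TD50 in mmol converted to a 1–100 Activity Score from log10(1/TD50). Mixtures lacking TD50 scored 50.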

[1] = TargetSites_Rat_Female: no positive results
[2] = TD50_Rat_Note: no positive results, TargetSites_Rat_Female: no positive results
[3] = TD50_Rat_Note: no positive results, TargetSites_Rat_BothSexes: no positive results
[4] = TD50_Rat_Note: no positive results
[5] = TD50_Rat_Note: TD50 is harmonic mean of more than one positive test, TargetSites_Rat_Female: nasal cavity
[6] = TargetSites_Rat_BothSexes: hematopoietic system
[7] = TD50_Rat_Note: TD50 is harmonic mean of more than one positive test, TargetSites_Rat_Female: liver
[8] = TargetSites_Rat_BothSexes: all tumor bearing animals

C=CCN(CC(C)O)N=O (stereo not drawn)
Potency (TargetSites_Rat_Female: esophagus, liver, nasal cavity): 0.877 mg/kg/day

NCCCCCCCCCCC(=O)O
Potency [1]: 1100 mg/kg/day

CNC[C@H](O)c1cccc(O)c1
outcome [2]: inactive; no positive results

COc1ccccc1[N+](=O)[O-]
Potency (TD50_Rat_Note: TD50 is harmonic mean of more than one positive test, greater than ten-fold variation among TD50 values for positive res, TargetSites_Rat_Female: hematopoietic system, kidney, large intestine, urinary bladder): 15.6 mg/kg/day

CCCCC1(COC(=O)CCC(=O)O)C(=O)N(c2ccccc2)N(c2ccccc2)C1=O
outcome [2]: inactive; no positive results

CN(C)NC(=O)CCC(=O)O
Potency (TD50_Rat_Note: no positive results are statistically significant, TargetSites_Rat_Female: uterus): 2500 mg/kg/day

ClCCCl
Potency (TD50_Rat_Note: TD50 is harmonic mean of more than one positive test, greater than ten-fold variation among TD50 values for positive res, TargetSites_Rat_Female: mammary gland, subcutaneous tissue): 14.6 mg/kg/day

C[C@@H]1O[C@@H](OC[C@H]2O[C@@H](Oc3c(-c4ccc(O)c(O)c4)oc4cc(O)cc(O)c4c3=O)[C@H](O)[C@@H](O)[C@@H]2O)[C@H](O)[C@H](O)[C@H]1O
outcome [2]: inactive; no positive results

CN(CCCO)N=O
Potency (TD50_Rat_Note: TD50 is harmonic mean of more than one positive test, TargetSites_Rat_Female: liver, lung): 1.66 mg/kg/day

CC(=O)OC/C=C(\C)CCC=C(C)C
outcome [2]: inactive; no positive results

CN(CCc1ccccc1)N=O
Potency (TD50_Rat_Note: TD50 is harmonic mean of more than one positive test): 0.00998 mg/kg/day

CN(C)C(=O)Nc1cccc(C(F)(F)F)c1
outcome [2]: inactive; no positive results

Nc1cc(Cl)c(-c2cc(Cl)c(N)cc2Cl)cc1Cl
outcome [2]: inactive; no positive results

OCC(O)CO
outcome [3]: inactive

CCN(CC)CC#CC(C)(C)OC(=O)C(O)(c1ccccc1)C1CCCCC1 (stereo not drawn)
outcome [2]: inactive; no positive results

Nc1c(F)c(N)c(F)c(F)c1F
outcome [4]: inactive; no positive results

CCOC1=C(O)C(=O)O[C@@H]1[C@@H](O)CO
outcome [2]: inactive

ClC/C=C/CCl
Potency [5]: 0.297 mg/kg/day

Oc1cc2c(cc1O)[C@H]1c3ccc(O)c(O)c3OC[C@@]1(O)C2
Potency [6]: 1000 mg/kg/day

O=NO
Potency (TD50_Rat_Note: TD50 is harmonic mean of more than one positive test, TargetSites_Rat_Female: liver, TargetSites_Rat_BothSexes: hematopoietic system): 167 mg/kg/day

Brc1c(Br)c(Br)c(Oc2c(Br)c(Br)c(Br)c(Br)c2Br)c(Br)c1Br
Potency [7]: 3340 mg/kg/day
outcome [2]: inactive; no positive results

CCCCN(N=O)C(N)=O
Potency (TD50_Rat_Note: TD50 is harmonic mean of more than one positive test, greater than ten-fold variation among TD50 values for positive res, TargetSites_Rat_Female: esophagus, ear Zymbals gland, hematopoietic system, large intestine, lung, mammary gland, stomach, uterus, vagina): 0.517 mg/kg/day

O=C1O[C@H]([C@H](O)CO)C(O)=C1O
outcome [2]: inactive; no positive results

CC(N)=S
Potency: 11.5 mg/kg/day

O=[As]O
outcome [3]: inactive

Cc1ccc(C)c(OCCCC(C)(C)C(=O)O)c1
Potency [2]: 247 mg/kg/day

O=[N+]([O-])c1ccc(-c2nc(NCCO)c3ccccc3n2)s1
Potency (TargetSites_Rat_Female: all tumor bearing animals): 1.87 mg/kg/day

O=C1O[C@H]([C@@H](O)CO)C(O)=C1O
outcome [2]: inactive; no positive results

NS(=O)(=O)c1cc2c(cc1Cl)NCNS2(=O)=O
outcome [2]: inactive; no positive results

CCCCCN(N=O)C(=N)N[N+](=O)[O-]
outcome [4]: inactive; no positive results

c1ccc2c(c1)Oc1ccccc1O2
outcome [2]: inactive; no positive results

CNCCc1ccc(OC(=O)C(C)C)c(OC(=O)C(C)C)c1
outcome [2]: inactive; no positive results

CCOc1nc2cccc(C(=O)OC(C)OC(=O)OC3CCCCC3)c2n1Cc1ccc(-c2ccccc2-c2nn[nH]n2)cc1 (stereo not drawn)
outcome [2]: inactive; no positive results

CC1(C)OC(=O)NC1=O
outcome [4]: inactive; no positive results

N#CN=C(N)N
outcome [2]: inactive; no positive results

CC(C)N=[N+]([O-])C(C)C
Potency: 0.00268 mg/kg/day

CCNC(=S)NCC
Potency (TD50_Rat_Note: TD50 is harmonic mean of more than one positive test, TargetSites_Rat_Female: thyroid gland): 24 mg/kg/day

NC(=O)CCCCC(N)=O
outcome [2]: inactive; no positive results

S=C([S-])NCCNC(=S)[S-].[Zn+2]
outcome [2]: inactive; no positive results
Potency [8]: 255 mg/kg/day

CCOC(N)=O
Potency [8]: 41.3 mg/kg/day

COP(=O)(OC)C(O)C(Cl)(Cl)Cl (stereo not drawn)
outcome [3]: inactive

Cn1cc(C(=O)[C@@H]2CCc3nc[nH]c3C2)c2ccccc21
outcome [2]: inactive; no positive results

CC(=O)N(O)c1ccc2c(c1)Cc1ccccc1-2
Potency [7]: 0.988 mg/kg/day

OC(c1ccc(Cl)cc1)(c1ccc(Cl)cc1)C(Cl)(Cl)Cl
outcome [2]: inactive; no positive results

ClC(Cl)(Cl)C(Cl)(Cl)Cl
Potency [1]: 55.4 mg/kg/day

c1ccc(Nc2ccc(Nc3ccccc3)cc2)cc1
outcome [2]: inactive; no positive results

O=S1(=O)CC=CC1
outcome [2]: inactive; no positive results

CC[N+]([O-])=NC
Potency: 0.0189 mg/kg/day

S=c1[nH]c2ccccc2s1
Potency (TD50_Rat_Note: TD50 is harmonic mean of more than one positive test, TargetSites_Rat_Female: adrenal gland, pituitary gland): 344 mg/kg/day

Nc1nnc(-c2ccc([N+](=O)[O-])o2)o1
Potency (TargetSites_Rat_Female: kidney, lung, mammary gland, stomach): 3.67 mg/kg/day

O=C1CCCCC1
outcome [2]: inactive; no positive results

CC(O)CNC(=O)N(N=O)C(C)Cl (stereo not drawn)
Potency [1]: 0.124 mg/kg/day

CCCCCC(/C=C/C=C\CCCCCCCC(=O)OC)OO (stereo not drawn)
outcome [4]: inactive; no positive results

CCN(Cc1cccc(S(=O)(=O)O)c1)c1ccc(C(=C2C=CC(=[N+](CC)Cc3cccc(S(=O)(=O)[O-])c3)C=C2)c2ccc(S(=O)(=O)O)cc2)cc1
Potency [6]: 5640 mg/kg/day

N[C@@H](CC(=O)O)C(=O)O
outcome [2]: inactive; no positive results

NC(=O)N/N=C/c1ccc([N+](=O)[O-])o1
Potency (TD50_Rat_Note: TD50 is harmonic mean of more than one positive test, harmonic mean of TD50 includes a value for upper 99% confidence li, TargetSites_Rat_Female: mammary gland): 6.98 mg/kg/day

Nc1ccc2nc3ccccn3c2n1
Potency (TD50_Rat_Note: TD50 is harmonic mean of more than one positive test, TargetSites_Rat_Female: clitoral gland, ear Zymbals gland, large intestine, liver, small intestine): 42.3 mg/kg/day

[Cl-].[Cl-].[Hg+2]
Potency [1]: 3.12 mg/kg/day

O=[N+]([O-])c1ccc2ncccc2c1
outcome [2]: inactive; no positive results

O=NN1CCOCC1
Potency (TD50_Rat_Note: TD50 is harmonic mean of more than one positive test, TargetSites_Rat_Female: liver, vascular system): 0.109 mg/kg/day

CN1C2CC[C@@H]1CC(NC(=O)c1cc(Cl)cc3c1OC(C)(C)C3)C2 (stereo partly drawn)
outcome [2]: inactive; no positive results

CC1=C(/C=C/C(C)=C/C=C/C(C)=C/C=C/C=C(C)/C=C/C=C(C)/C=C/C2=C(C)CCCC2(C)C)C(C)(C)CCC1
outcome [4]: inactive; no positive results

CCCCC(CC)COC(=O)c1ccccc1C(=O)OCC(CC)CCCC (stereo not drawn)
Potency [7]: 716 mg/kg/day

CNC[C@H](O)c1ccc(O)c(O)c1
outcome (TD50_Rat_Note: only experiment is NCI/NTP bioassay inadequate, TargetSites_Rat_Female: NTP bioassay inadequate): ntp bioassay inadequate

CC(O)CN(CCO)N=O (stereo not drawn)
Potency (TargetSites_Rat_Female: esophagus, liver, vascular system): 1.02 mg/kg/day

O=P(OC(CCl)CCl)(OC(CCl)CCl)OC(CCl)CCl
Potency (TD50_Rat_Note: TD50 is harmonic mean of more than one positive test, TargetSites_Rat_Female: kidney, liver): 46.4 mg/kg/day

Cc1ccc(N)cc1
outcome [4]: inactive; no positive results

CCOP(=S)(OCC)SC1OCCOC1SP(=S)(OCC)OCC (stereo not drawn)
outcome [2]: inactive; no positive results

CC(=O)OC(OC(C)=O)c1ccc([N+](=O)[O-])o1
outcome [2]: inactive

S=C=NCc1ccccc1
outcome [4]: inactive; no positive results

O
outcome [2]: inactive; no positive results

[O]=[Cr][O][Cr]=[O]
outcome [3]: inactive

COC(=O)NN
outcome [2]: inactive; no positive results

CN(C)CCOC(c1ccccc1)c1ccccc1
outcome [2]: inactive; no positive results

c1ccc(C2CO2)cc1 (stereo not drawn)
Potency (TD50_Rat_Note: TD50 is harmonic mean of more than one positive test, TargetSites_Rat_Female: stomach): 55.4 mg/kg/day

c1ccc(OCC2CO2)cc1 (stereo not drawn)
Potency [5]: 44 mg/kg/day

BrCCBr
Potency (TD50_Rat_Note: TD50 is harmonic mean of more than one positive test, TargetSites_Rat_Female: liver, lung, mammary gland, nasal cavity, pituitary gland, stomach, vascular system): 1.52 mg/kg/day

O=[N+]([O-])c1ccc2nc[nH]c2c1
outcome [2]: inactive; no positive results

O.O.O.O.O.O.O.O.O=S(=O)([O-])[O-].O=S(=O)([O-])[O-].O=S(=O)([O-])[O-].[Cd+2].[Cd+2].[Cd+2]
outcome [4]: inactive; no positive results

CCOc1ccc(NC(C)=O)cc1N
outcome [2]: inactive; no positive results

NCCc1ccc(O)c(O)c1
outcome [4]: inactive; no positive results

CCOC(=O)CC(SP(=S)(OC)OC)C(=O)OCC (stereo not drawn)
outcome [2]: inactive; no positive results

O=CC1CO1 (stereo not drawn)
outcome [2]: inactive

CN(C)C(=S)SSC(=S)N(C)C
outcome [2]: inactive; no positive results

C[N+](C)(C)CCCl
outcome [2]: inactive; no positive results

CC(=O)CN(CCO)N=O
Potency (TargetSites_Rat_Female: liver): 1.8 mg/kg/day

S=C1NCCN1
Potency (TD50_Rat_Note: TD50 is harmonic mean of more than one positive test, greater than ten-fold variation among TD50 values for positive res, TargetSites_Rat_Female: thyroid gland, TargetSites_Rat_BothSexes: liver): 8.13 mg/kg/day

O=C(O)CC[N+](=O)[O-]
outcome [2]: inactive; no positive results

CCN(CC)C(=S)S[Te](SC(=S)N(CC)CC)(SC(=S)N(CC)CC)SC(=S)N(CC)CC
outcome [2]: inactive; no positive results

OCCOCCO
Potency [1]: 1660 mg/kg/day

O=C(Nc1cccc2c(=O)cc(-c3nn[nH]n3)oc12)c1ccc(OCCCCc2ccccc2)cc1
outcome [2]: inactive; no positive results
